Experimental data as given in patent US20210348124A1, “SEBACEOUS GLAND ORGANOIDS AND USE THEREOF” (TECHNION RESEARCH & DEVELOPMENT FOUNDATION LIMITED, priority 2018, published 2021).

How the values were obtained:
Type in all cases: cell-based, mouse
[1] = tested on: SG organoid; experiment: SG organoid as model organ to test drugs (caspase-3 inhibitors, Tretinoin); conditions: for attenuation of SG organoid size: 100 uM, after 72 hours
Experimental: Organoids were generated as described herein and treated with two caspase-3 inhibitors (zDEVD-fmk at 100 uM and […] at 100 uM) to assess their effect on the SG. A known anti-acne drug, Tretinoin (10-100 uM) was also added as a positive control.

[2] = tested on: DBL-treated organoids; experiment: Drug treatment of DBL-treated SG organoids (size, ORO, Ki67, cell size); conditions: for organoid size: then drug for three days
Source text: With a system that recapitulates important aspects of acne vulgaris, the extent that currently prescribed medications could affect its development was examined. Retinoids are derivatives of vitamin A, which serve as the first-line treatment for acne. Specifically, all-trans-Retinoic acid (ATRA; Tretinoin), formulated ATRA (Ret-Avit) and 13-cis RA (Isotrtinoin) are used worldwide. […] The differentiation program in the SG is a multi-step process. Cells prior to the onset or during early stage of differentiation express AR, which is known to reside upstream and lead to the expression of F[…]. […] Therefore, it was hypothesized that inhibition of c-Myc could serve as a beneficial treatment of acne vulgaris. For this aim, the 10058-F4 c-Myc inhibitor was administered to DBL-treated organoids and size, proliferation and differentiation were monitored.

[3] = tested on: freshly isolated α6+; ScaI−; Blimp1−YFP+ cells; experiment: Organoid generation from primary cells directly seeded in Matrigel with ROCK inhibitor; conditions: cultures supplemented with ROCK inhibitor and GFs
Source text: It was next examined if these Blimp1+ cell-derived organoids could be generated by isolating primary α6+; ScaI−; Blimp1−YFP+ cells and directly seeding them into Matrigel without a pre-culturing phase. […] Thus, these cultures were supplemented with a ROCK inhibitor (Y27632), which prevents cell-cell interaction-dependent anoikis.

[4] = tested on: Blimp1−YFP+-derived sebaceous gland organoids; experiment: SG organoids treated with c-Myc inhibitor: size, cell size/number, proliferation, lipid staining
Experimental: For organoid generation a total of ˜1000 cells were mixed with 50 μl of Matrigel (BD Bioscience) and plated in 24-well plates. After polymerization of Matrigel, 500 μl of HFSC media containing growth factors; 20 ng ml-1 hFGF (Peprotech), 40 ng ml-1 mEGF (Peprotech), 500 ng ml-1 hR-spondin 1, 100 ng ml-1 mNoggin (Peprotech) and B-27 Supplement (50×) (Invitrogen)) was added. Organoid treatment with cMyc inhibitor 10058-F4 (50 Tocris Bioscience) or DMSO (as control) was performed for 4 days and renewed upon media change. Organoids were fixed in 4% PFA for 1 hour for immunofluorescence analysis or harvested for RNA extraction. Antibody staining was visualized using secondary antibodies conjugated to Alexa Fluor-488, Alexa Fluor-546, and Alexa Fluor-633. Analysis was performed on Zeiss LSM 880 confocal microscope. Oil-red-O (ORO) staining was performed by incubating samples in 0.18% ORO for 20 min and washing with PBS. Next, the effect of inhibiting c-Myc activity by administering the specific c-Myc inhibitor, 10058-F4 was monitored. […] Six-day old SG organoids were supplemented with the c-Myc inhibitor for 4 days. […] Since the effect on organoid size could result from either altered cell size or number both scenarios were examined. […] Whether the effect of c-Myc inhibition originates from an effect on cell proliferation and/or differentiation was examined next. Employing IF staining with two proliferative markers, Ki67 and MCM2, indicated a significant decline in Ki67+ (69%) and MCM2+ (72%) proliferative cells (FIG. 4J-L). […] This is in line with the reported role of c-Myc in regulating differentiation in the SG in vivo. […] Next, using Real time (RT)-PCR analysis, the levels of transcripts that are expressed in either SG differentiating or differentiated cells, which play a key role in this process were examined. Inhibition of c-Myc decreased the levels of all examined factors including Androgen Receptor (AR) and fatty acid synthase (FASN) (FIG. 4O).

[5] = tested on: Blimp1−YFP+-derived sebaceous gland organoids; experiment: Real-time PCR of sebocyte differentiation markers in c-Myc inhibitor-treated SG organoids; conditions: RT-PCR, inhibitor for 4 days
Experimental: Organoid treatment with cMyc inhibitor 10058-F4 (50 Tocris Bioscience) or DMSO (as control) was performed for 4 days and renewed upon media change. Organoids were fixed in 4% PFA for 1 hour for immunofluorescence analysis or harvested for RNA extraction.
(§1) RNA extraction, reverse transcription and real-time PCR: RNA was isolated using Trizol (Sigma) and up to 2 μg of RNA were subjected to cDNA synthesis (Applied Biosystems). Real time PCR was carried out using the PerfeCTa SYBR Green FastMix (Quanta), with the following gene-specific primers: RpLO: […] (SEQ ID NO: 1) and ATCTGCTTGGAGCCCACAT (SEQ ID NO: 2); AR: […] (SEQ ID NO: 3) and […] (SEQ ID NO: 4); PPAR-gamma: […] (SEQ ID NO: 5) and […] (SEQ ID NO: 6); PPAR-beta: TTCCTTCCAGCAGCTGTG (SEQ ID NO: 7) and TCGCACGCGTGGACC (SEQ ID NO: 8); FASN: […] (SEQ ID NO: 9) and […] (SEQ ID NO: 10). Amplicon levels were analyzed in triplicate and quantitated relative to a standard curve comprising cDNA, and values normalized to levels of the housekeeping gene (Rpl0). Reactions were: 3 min at 95° C., then 40 cycles of 10 sec at 95° C. and 30 sec at 60° C. with addition of melt curve step: 10 sec at 95° C., and increments of 0.5° C. every 5 sec between 65° C. and 95° C.
This is in line with the reported role of c-Myc in regulating differentiation in the SG in vivo. […] Next, using Real time (RT)-PCR analysis, the levels of transcripts that are expressed in either SG differentiating or differentiated cells, which play a key role in this process were examined. Inhibition of c-Myc decreased the levels of all examined factors including Androgen Receptor (AR) and fatty acid synthase (FASN) (FIG. 4O).

[6] = tested on: DBL-treated organoids; experiment: RT-PCR of DBL-treated SG organoids after drug treatment; conditions: then drug
Experimental: as §1
The differentiation program in the SG is a multi-step process. Cells prior to the onset or during early stage of differentiation express AR, which is known to reside upstream and lead to the expression of FASN35.
Retinols, such as 13-cis RA, are known to have severe side-effects and concerns have been raised regarding the teratogenicity of these compounds. This highlights the immediate need for alternative treatments. […] Therefore, it was hypothesized that inhibition of c-Myc could serve as a beneficial treatment of acne vulgaris. For this aim, the 10058-F4 c-Myc inhibitor was administered to DBL-treated organoids and size, proliferation and differentiation were monitored.

[7] = tested on: SG organoids; experiment: Acne vulgaris model: DHT, BRL, LIN administered to SG organoids (size, ORO, Ki67); conditions: administration to organoids (single agents for 7 days; combinations)
Experimental: Therefore, as a first step, the potent dihydrotestosterone (DHT) androgen, the PPAR-γ BRL-49653 (BRL) activator and linoleic acid (LIN) known to activate PPAR-B38 were administered to organoids.

[8] = IF staining, inhibitor for 4 days
[9] = six-day old SG organoids, inhibitor for 4 days

Structure (SMILES): CC1=C(/C=C/C(C)=C/C=C/C(C)=C/C(=O)O)C(C)(C)CCC1 [Tretinoin, all-trans-Retinoic acid]
- reduction of SG organoid size compared with the caspase-3 inhibitors ([1]; 10-100 uM, positive control): very similar
- number of ORO+ cells ([2]; then drug): heightened number
- organoid size [2]: significant decrease

Structure (SMILES): C[C@@H](N)[C@H]1CC[C@H](C(=O)Nc2ccncc2)CC1 [Y27632]
- organoid generation from primary cells seeded into Matrigel without pre-culturing [3]: able to give rise to organoids, although at a lower efficiency

Structure (SMILES): CCc1ccc(C=C2SC(=S)NC2=O)cc1 [10058-F4, 5-[(4-Ethylphenyl)methylene]-2-thioxo-4-thiazolidinone]
- decline in Ki67+ proliferative cells [4, 8]: 69%
- decline in MCM2+ proliferative cells [4, 8]: 72%
- lipid levels (ORO dye staining) ([4]; inhibitor for 4 days): significant decrease
- decrease in organoid size ([4]; six-day old SG organoids, c-Myc inhibitor for 4 days, vs DMSO control): ~40%
- decline in cell diameter, cells in the inner compartment [4, 9]: ~40%
- diameter of individual cells in the outer proliferating layer of the organoid [4, 9]: modest size decrease
- localization of c-Myc [4, 9]: did not affect
- number of cells in the outer ring of the organoids [4, 9]: decreased
- Androgen Receptor (AR) transcript level [5]: decreased
- PPAR-β transcript level [5]: significantly attenuated
- PPAR-γ transcript level [5]: significantly attenuated
- fatty acid synthase (FASN) transcript level [5]: decreased
- expression levels of lipid synthesis genes [6]: significantly lower
- mRNA level of Cyclin D1 [6]: significant decrease
- mRNA level of c-Myc [6]: significant decrease
- decrease in the number of Ki67+ cells ([2]; then drug): more than 80%
- number of ORO+ cells ([2]; then drug): significant decrease
- size of individual inner cells ([2]; then drug): decrease
- organoid size [2]: significant decrease

Structure (SMILES): CC1=C(/C=C/C(C)=C/C=C/C(C)=C\C(=O)O)C(C)(C)CCC1 [13-cis RA, 13-cis-Retinoic acid]
- number of ORO+ cells ([2]; then drug): heightened number
- organoid size [2]: significant decrease

Structure (SMILES): COC(=O)CC[C@H](NC(=O)[C@H](CC(=O)OC)NC(=O)OCc1ccccc1)C(=O)N[C@H](C(=O)N[C@@H](CC(=O)OC)C(=O)CF)C(C)C [zDEVD-fmk]
- attenuation of SG organoid size [1]: about 30%
- cells positive for Ki67 ([1]; caspase-3 inhibitor treatment): greatly reduced
- cells positive for MCM2 ([1]; caspase-3 inhibitor treatment): greatly reduced

Structure (SMILES): C[C@]12CCC(=O)C[C@@H]1CC[C@@H]1[C@@H]2CC[C@]2(C)[C@@H](O)CC[C@@H]12 [DHT, dihydrotestosterone]
- size of individual SG organoids [7]: significantly increased

Structure (SMILES): CCCCC/C=C\C/C=C\CCCCCCCC(=O)O [LIN, linoleic acid]
- size of individual SG organoids [7]: significantly increased

Structure (SMILES): CC(=O)OCCN1C(=O)c2c(C)nc3ccc(S(=O)(=O)N4CCOCC4)cc3c2C1=O [Ivachtin]
- attenuation of SG organoid size [1]: about 30%
